Patent US8741889B2, “Method of treating non-small cell lung cancer and colon cancer with gamma-secretase inhibitor” (Hoffmann-La Roche Inc, priority 2008, dated 2014)

System: H460a NSCLC xenografts
Assay: Antitumor efficacy in H460a NSCLC xenografts in nude mice
Format: in vivo
Procedure: Female nude mice (10/group), obtained from Charles River Laboratories (Wilmington, Mass.) were used when they were approximately 13-14 weeks old and weighed approximately 23-25 grams. The health of all animals was determined daily by gross observation of experimental animals and by the analyses of blood samples of sentinel animals that were housed on the shared shelf racks. All animals were allowed to acclimate and recover from any shipping related stress for a minimum of 72 hours prior to experimental use. Autoclaved water and irradiated food [5058-ms Pico chow (mouse) Purina, Richmond, Ind.] were provided ad libitum, and the animals were maintained on a 12-hour light and dark cycle. Cages, bedding and water bottles were autoclaved before use and were changed weekly. Lovo human colorectal, Calu-6 NSCLC, and HCT116 colorectal cells were purchased from ATCC (Manassas, Va.). […] NSCLC cells were a gift from Dr. Jack Roth, MD Anderson Medical Center, Houston, Tex. Lovo cells were cultured in F12K culture medium, Calu-6 and […] were grown in Dulbecco's Modified Essential Medium (DMEM), and HCT116 cells were grown in McCoy's 5A medium. All culture media were supplemented with 10% (v/v) FBS and 1% (v/v) […] L-glutamine. […] Mice implanted with Lovo and Calu-6 xenografts were randomized on day 19 post-implant, mice implanted with HCT116 xenografts were randomized on day 20, while mice implanted with […] xenografts were randomized on day 12 post implant. […] Treatment for the Lovo and Calu-6 tumor studies began on Oct. 11, 2006 (day 19 post tumor cell implant), for the HCT116 study began on Oct. 16, 2006 (day 20 post tumor cell implant), and for the […] study on Oct. 11, 2006 (12 days post tumor cell implant). […] For the Lovo and Calu-6 studies, 21 day dosing ended on day 40 post-tumor cell implant. For intermittent dosing, treatment ended on day 26, was reinitiated on day 40, and ended day 47. For the HCT116 study, 21 day dosing ended on day 42 post tumor cell implant. Intermittent dosing ended on day 27, was reinitiated on day 42, and ended day 49. For the […] study, 21 day dosing ended early on day 27 post tumor cell implant, whereas for intermittent dosing, treatment ended day 19, and was not reinitiated (due to lack of efficacy). Efficacy data was graphically represented as the mean tumor volume ±standard error of the mean (SEM). […] Statistical analysis was determined by the rank sum test and One Way Anova and a post-hoc Bonferroni t-test (SigmaStat, version 2.0, Jandel Scientific, San Francisco, Calif.). […]

Measured: % TGI

CC(C)(C(=O)NCC(F)(F)C(F)(F)F)C(=O)N[C@@H]1C(=O)Nc2ccccc2-c2ccccc21 [Compound (1), 2,2-Dimethyl-N—((S)-6-oxo-6,7-dihydro-5H-dibenzo[b,d]azepin-7-yl)-N′-(2,2,3,3,3-pentafluoro-propyl)-malonamide]
0%: 3 mg/kg po qd, dosing ended early | 10 mg/kg po qd, dosing ended early | 30 mg/kg po qd × 7 days, not reinitiated | 60 mg/kg po qd × 7 days, not reinitiated
